Test results as given in the supplement of paper PMC10307832.

What was measured:
Assay in all cases: relative viability (nuclei count vs DMSO), 5 days (fraction); higher = more cells survive
MK-8033 + Palbociclib = compound: Cn1cc(-c2cnc3ccc4ccc(CS(=O)(=O)NCc5ccccn5)cc4c(=O)c3c2)cn1 [MK-8033] + CC(=O)c1c(C)c2cnc(Nc3ccc(N4CCNCC4)cn3)nc2n(C2CCCC2)c1=O [Palbociclib] (partner 0.5 µM)
In short: (§1)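 Relative viability is defined as nuclei in treated wells over nuclei in vehicle wells. Duplicate plates were run and medians reported. Lung cancer cell lines in 1536-well plates were dosed by pin tool one day after seeding, with one drug or with a fixed anchor-drug dose plus five library-drug doses (not always all listed) in √10 steps, and nuclei were counted after 5 days.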

RU-SKI 43 + Lapatinib = compound: CC[C@@H](C)CNCC(=O)N1CCC2=C([C@@H]1COC3=CC=CC(=C3)C)C=CS2 [RU-SKI 43] + CS(=O)(=O)CCNCc1ccc(-c2ccc3ncnc(Nc4ccc(OCc5cccc(F)c5)c(Cl)c4)c3c2)o1 [Lapatinib] (partner 2 µM)
In short: as §1

MK-8033 + Trametinib = compound: Cn1cc(-c2cnc3ccc4ccc(CS(=O)(=O)NCc5ccccn5)cc4c(=O)c3c2)cn1 [MK-8033] + CC(=O)Nc1cccc(-n2c(=O)n(C3CC3)c(=O)c3c(Nc4ccc(I)cc4F)n(C)c(=O)c(C)c32)c1 [Trametinib] (partner 0.02 µM)
In short: as §1

MK-8033 + Crizotinib = compound: Cn1cc(-c2cnc3ccc4ccc(CS(=O)(=O)NCc5ccccn5)cc4c(=O)c3c2)cn1 [MK-8033] + C[C@@H](Oc1cc(-c2cnn(C3CCNCC3)c2)cnc1N)c1c(Cl)ccc(F)c1Cl [Crizotinib] (partner 1 µM)
In short: as §1

Cell Line	relative viability (MK-8033 + Palbociclib; first compound 0.02 µM)	relative viability (MK-8033 + Palbociclib; first compound 0.06325 µM)	relative viability (MK-8033 + Palbociclib; first compound 0.2 µM)	relative viability (MK-8033 + Palbociclib; first compound 0.6325 µM)	relative viability (MK-8033 + Palbociclib; first compound 2 µM)	relative viability (RU-SKI 43 + Lapatinib; first compound 0.1 µM)	relative viability (RU-SKI 43 + Lapatinib; first compound 0.3162 µM)	relative viability (RU-SKI 43 + Lapatinib; first compound 1 µM)	relative viability (RU-SKI 43 + Lapatinib; first compound 3.162 µM)	relative viability (RU-SKI 43 + Lapatinib; first compound 10 µM)	relative viability (MK-8033 + Trametinib; first compound 0.02 µM)	relative viability (MK-8033 + Trametinib; first compound 0.06325 µM)	relative viability (MK-8033 + Trametinib; first compound 0.2 µM)	relative viability (MK-8033 + Trametinib; first compound 0.6325 µM)	relative viability (MK-8033 + Trametinib; first compound 2 µM)	relative viability (MK-8033 + Crizotinib; first compound 0.02 µM)	relative viability (MK-8033 + Crizotinib; first compound 0.06325 µM)	relative viability (MK-8033 + Crizotinib; first compound 0.2 µM)	relative viability (MK-8033 + Crizotinib; first compound 0.6325 µM)	relative viability (MK-8033 + Crizotinib; first compound 2 µM)
NCI-H1395	0.499	0.588	0.654	0.612	0.624	1.15	1.04	1.24	1.13	1.24	0.911	0.983	1.01	1.05	1.03	–	–	–	–	–
HCC-44	0.98	1.01	0.975	1.01	1.01	1.12	1.02	1.15	1.04	0.995	1.01	1.04	1.04	1.02	1.04	0.808	0.732	0.755	0.746	0.756
NCI-H441	0.182	0.189	0.217	0.275	0.238	–	–	–	–	–	0.376	0.343	0.391	0.487	0.437	0.753	0.646	0.681	0.778	0.691
Calu-6	–	–	–	–	–	1.28	1.43	1.08	1.1	0.982	–	–	–	–	–	0.831	0.77	0.704	0.828	0.695
CAL-12T	0.44	0.436	0.324	0.579	0.323	0.661	0.759	0.551	0.562	0.619	0.347	0.297	0.31	0.413	0.329	0.62	0.608	0.646	0.693	0.474
